These results are taken from ChEMBL document CHEMBL1201862, “PubChem BioAssay data set” (2004).

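Grown in 96-well plates, cells were treated for 48 hours with each compound at five concentrations. Insufficient inhibition: endpoint recorded as highest concentration tested. GI50 is the concentration that inhibits growth by half.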 Active and inactive are the calls of the source. Rule as the data show it: active = GI50 up to about 1.1 µM and inactive = higher.

What all share (assay): NCI anticancer screen, dose series, 48 h
Test [1] deals with PC-3.
Test [2] has as its system 786-0.
Test [3] relates to Hs-578T.
Test [4] concerns HOP-92.
For test [5], the system named is EKVX.
Test [6] relates to HCT-15.
In test [7] the test system is UO-31.
Test [8] has as its system T47D.
Test [9] concerns RXF 393.
The test system of test [10] is UACC-257.
Test [11] relates to SK-MEL-28.
The subject of test [12] is HOP-62.
The subject of test [13] is CCRF-CEM.
Test [14] concerns LOX IMVI.
For test [15], the system named is MOLT-4.
The test system of test [16] is SK-MEL-2.
Test [17] has as its system U-251.
Test [18] concerns K562.
Test [19] concerns NCI-H460.

Turning to `COc1cc2c(cc1C1COc3cc4occc4cc3C1=O)OCO2` (stereo not drawn), the GI50 in [1] is > 100 µM (inactive); in test [2], > 100 µM (inactive); in test [3] it was 28.1 µM (inactive); in test [4], 91 µM (inactive); in test [5] it was 87.3 µM (inactive); in test [6], 35.9 µM. For the same molecule, the GI50 in [7] was > 100 µM (inactive); in [8], > 100 µM (inactive); in test [9], 36.3 µM (inactive); in test [10] it was > 100 µM (inactive); in test [11], 40.1 µM (inactive); in [12] it was 40.3 µM (inactive). Further, the GI50 in [13] was > 100 µM (inactive); in [14], > 100 µM (inactive); in [15], 4.05 µM (inactive); in test [16], > 100 µM (inactive); in test [17], 76 µM (inactive).
Take `ON[C@H]1C[C@@H](n2cnc3c(NC4CC4)ncnc32)[C@H](O)[C@@H]1O`: the GI50 in test [18], in test [1], in test [2], in test [3], in [4] and in test [5] was > 100 µM (inactive) throughout. Besides, the GI50 is > 100 µM in test [6]; > 100 µM (inactive) in [7]; > 100 µM (inactive) in test [8]; > 100 µM (inactive) in test [9]; > 100 µM (inactive) in test [10]; > 100 µM (inactive) in test [11]. For the same molecule, the GI50 in [12], in test [13], in test [19], in [14], in [15] and in test [16] was > 100 µM (inactive) each time. In addition, the GI50 in test [17] was > 100 µM (inactive).
Take `O=C(/C=C/c1csc(-c2ccccc2)n1)NCc1ccc(C(=O)NCc2ccccc2)cc1`: the GI50 in [18] is > 100 µM (inactive); in test [1], > 100 µM (inactive); in [2], 33 µM (inactive); in [3], 13.3 µM (inactive); in [4], 24.4 µM (inactive); in test [5] it was > 100 µM (inactive). Besides, the GI50 in test [6] was > 100 µM; in test [7], > 100 µM (inactive); in test [8], > 100 µM (inactive); in [9], 61 µM (inactive); in test [10], > 100 µM (inactive); in test [11], > 100 µM (inactive). Besides, the GI50 in [12] was 11.3 µM (inactive); in [13], > 100 µM (inactive); in test [19], > 100 µM (inactive); in test [14], > 100 µM (inactive); in test [15], > 100 µM (inactive); in test [16], > 100 µM (inactive). The GI50 in test [17] was 32.9 µM (inactive).
In the case of `CCC/C=C/c1cc2c(cc1O)CC[C@@H]1[C@@H]2CC[C@]2(C)[C@@H](O)CC[C@@H]12`, the GI50 in [18] was 16.8 µM (inactive); in [1], 15.8 µM (inactive); in test [2], 15.2 µM (inactive); in test [3], 21.7 µM (inactive); in test [4] it was 20.3 µM (inactive); in test [5] it was 19.2 µM (inactive). Further, the GI50 in [6] was 18.6 µM; in test [7] it was 16.3 µM (inactive); in test [8], 24.9 µM (inactive); in test [9], 16.3 µM (inactive); in test [10], 15.8 µM (inactive); in test [11] it was 19.3 µM (inactive). In addition, the GI50 was 12 µM (inactive) in test [13]; 17.4 µM (inactive) in test [19]; 14.8 µM (inactive) in [14]; 18.3 µM (inactive) in [15]; 16.6 µM (inactive) in test [16]; 16.9 µM (inactive) in test [17].
